From US11712456B2, “Hemp extract for treatment of pain in animals” (Portland Technology Holdings LLC, priority 2018, dated 2023)
Values joined by “and” are separate entries in the source; they are usually repeats but may differ in a detail not shown here. Equal entries are not always repeated.

Assay: Feline safety study: cannabidiol quantification in serum and pharmacokinetics (LC-MS/MS)
Format: in vivo
Conditions: individual cats; oral administration of 2/mg/kg cannabidiol in capsule form
Experimental: On the first day of dosing, blood was collected for a PK analysis from 6 of the 8 cats. The most cooperative cats were selected for the PK analysis. […] Samples were placed into a red top clotting tube with no serum separator. […] The harvested serum was placed in cyrovials stored at −70° C. Each tube was labeled with the cat id, date of collection and collection time point. Samples were shipped overnight on dry ice to the Proteomics & Metabolomics Facility at Colorado State University.
Aliquots of feline serum were delivered to the facility on dry ice and stored at −80° C. upon receipt. […] 200 μL of cold (−20 C) 100% Acetonitrile (spiked with 60 ng/mL of d3-CBD) was added to each sample and vortexed at room temperature for 5 minutes. 200 μL of water was added and vortexed for an additional 5 minutes. 1 ml of 100% hexane was then added to each sample and vortexed for a final 5 minutes. […] The upper hexane layer was transferred to new-labeled glass vials (˜900 uL per sample), carefully avoiding the middle and lower layers. Samples were concentrated to dryness under N2 and resuspended in 60 μL of 100% acetonitrile.
An 8 point standard curve of CBD was generated in matrix background using a blank serum. Concentrations ranged from 0 ng/mL 1000 ng/mL (3.2× dilution series). 50 uL of each spiked serum sample was extracted as above.
LC-MS/MS was performed on a Waters Acquity M-Class UPLC coupled to a Waters Xevo TQ-S triple quadrupole mass spectrometer. […] Flow rate was 3.0 μL/min and injection volume was 2.0 μL. Samples were held at 6° C. in the autosampler, and the column was operated at 70° C. The MS was operated in selected reaction monitoring (SRM) mode, where a parent ion is selected by the first quadrupole, fragmented in the collision cell, then a fragment ion selected for by the third quadrupole. Product ions, collision energies, and cone voltages were optimized for each analyte by direct injection of individual synthetic standards. Inter-channel delay was set to 3 ms. The MS was operated in positive ionization mode with the capillary voltage set to 3.6 kV. […]
All Raw data files were imported into the Skyline open source software package. […] Peak areas were extracted for target compounds detected in biological samples and normalized to the peak area of the appropriate internal standard in each sample using in-house R Script (TQS-tools). CBD concentrations were calculated in nanograms per milliliter of extract (0.06 mL) and then back calculated to nanograms per mL of serum (0.05 mL of serum). […]
LOD are calculated based on the standard deviation of the response (Sy) of the 0 point calibration standard (i.e. 0 ng/mL CBD as an estimate on noise) and the slope of the calibration curve (S) at levels approximating the LOD according to the formula: LOD=3*(Sy/S). […]

Question: With `C=C(C)[C@@H]1CCC(C)=C[C@H]1c1c(O)cc(CCCCC)cc1O` [cannabidiol] as the compound, how does the “AUC 0-t = Area under the curve (0 time to time of last collection [24 hr])” value read?
Answer: 265.0 ng·h/mL and 54.2 ng·h/mL and 42.4 ng·h/mL and 212.2 ng·h/mL and 125.0 ng·h/mL and 194.1 ng·h/mL and 134.2 ng·h/mL and 60.2 ng·h/mL

Question: And the “Cmax = Maximum concentration” value?
Answer: 8.8 ng/mL and 12.1 ng/mL and 75.3 ng/mL and 40.5 ng/mL and 53.3 ng/mL and 21.2 ng/mL

Question: What about the “Tmax = Time of maximum concentration” value of the same compound?
Answer: 4 h and 1 h

Question: And the “T½ el = Half-life of elimination” value?
Answer: 2.3 h and 1.3 h and 1.7 h
